# From publication doi:10.1101/469072v1 (biorxiv, 2018)
# Where two headings read alike, the source gives them in different places.
# How the values were obtained:
# NfGlck [1] = experiment: coupled glucokinase assay, absorbance at […] nm; type: biochemical, Naegleria fowleri
# NfGlck [2] = experiment: coupled glucokinase assay, absorbance at […] nm; type: biochemical, Naegleria fowleri; settings: read-out: apparent Km, MgCl2
# HsGlck [3] = target: T1, HsGlck (Homo sapiens, UniProt P35557); experiment: biochemical
# T1 sequence (P35557 1-465): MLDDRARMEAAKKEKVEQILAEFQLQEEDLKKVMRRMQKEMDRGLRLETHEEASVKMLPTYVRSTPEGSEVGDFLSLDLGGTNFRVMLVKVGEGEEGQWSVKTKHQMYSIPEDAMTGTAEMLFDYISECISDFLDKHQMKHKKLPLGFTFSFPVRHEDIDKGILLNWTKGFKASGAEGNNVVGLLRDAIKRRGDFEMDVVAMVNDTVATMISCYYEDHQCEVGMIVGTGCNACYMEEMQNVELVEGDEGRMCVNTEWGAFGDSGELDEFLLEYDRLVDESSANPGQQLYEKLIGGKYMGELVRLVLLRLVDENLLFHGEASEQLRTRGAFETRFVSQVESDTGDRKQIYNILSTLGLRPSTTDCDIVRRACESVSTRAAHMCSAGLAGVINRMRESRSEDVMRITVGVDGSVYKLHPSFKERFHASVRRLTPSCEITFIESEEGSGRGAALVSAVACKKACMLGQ
# TbHK1 [4] = target: T2, TbHK1 (Trypanosoma brucei, UniProt Q38C42); settings: read-out: TbHK1 IC50; inhibitor
# T2 sequence (Q38C42 1-471): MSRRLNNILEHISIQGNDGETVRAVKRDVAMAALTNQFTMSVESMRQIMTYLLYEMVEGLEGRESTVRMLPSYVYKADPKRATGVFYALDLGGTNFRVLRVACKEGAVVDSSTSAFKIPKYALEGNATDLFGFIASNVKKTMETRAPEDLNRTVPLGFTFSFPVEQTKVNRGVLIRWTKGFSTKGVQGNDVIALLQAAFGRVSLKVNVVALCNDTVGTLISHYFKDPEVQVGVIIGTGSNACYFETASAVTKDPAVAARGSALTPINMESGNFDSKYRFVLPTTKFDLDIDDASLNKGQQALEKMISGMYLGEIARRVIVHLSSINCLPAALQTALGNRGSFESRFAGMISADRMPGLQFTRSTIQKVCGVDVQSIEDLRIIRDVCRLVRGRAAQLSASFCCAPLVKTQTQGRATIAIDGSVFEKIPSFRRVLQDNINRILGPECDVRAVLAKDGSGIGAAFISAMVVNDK
# HsGlck [5] = target: T1, HsGlck; experiment: enzyme inhibition assay; type: biochemical
# PfHK = target: T3, PfHK (Plasmodium falciparum, UniProt Q02155); experiment: enzyme inhibition assay; type: biochemical
# T3 sequence (Q02155 1-493): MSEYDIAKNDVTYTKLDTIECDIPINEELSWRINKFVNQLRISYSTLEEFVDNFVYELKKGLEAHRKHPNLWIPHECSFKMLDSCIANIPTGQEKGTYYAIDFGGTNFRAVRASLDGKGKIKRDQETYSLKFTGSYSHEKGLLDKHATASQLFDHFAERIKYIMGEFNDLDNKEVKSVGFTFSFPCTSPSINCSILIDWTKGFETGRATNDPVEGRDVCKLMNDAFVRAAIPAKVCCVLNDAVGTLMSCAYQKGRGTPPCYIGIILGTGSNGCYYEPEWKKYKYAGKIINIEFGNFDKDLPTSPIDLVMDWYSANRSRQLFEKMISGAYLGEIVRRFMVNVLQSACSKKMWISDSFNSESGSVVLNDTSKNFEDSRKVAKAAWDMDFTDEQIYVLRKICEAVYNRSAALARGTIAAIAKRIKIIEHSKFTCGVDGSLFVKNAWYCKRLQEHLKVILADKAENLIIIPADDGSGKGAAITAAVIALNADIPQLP
# NfGlck [6] = experiment: coupled glucokinase assay, absorbance at […] nm; type: biochemical, Naegleria fowleri; settings: pH 7.4, MgCl2
# TbHK1 [7] = target: T2, TbHK1; experiment: enzyme inhibition assay; type: biochemical
# [8] = mixed inhibitor with respect to ATP
IC50 (HsGlck [5]) [µM],IC50 (TbHK1 [7]) [µM],IC50 (NfGlck [6]) [µM],Structure (SMILES),other results
> 10,> 10,> 10,"CC(C)(C)c1ccc(C(=O)Nc2cc(Cl)c(-c3cccnc3)cc2C(=O)O)cc1 [compound 7, SID162211077]",–
> 10,> 10,> 10,"CC(C)(C)c1ccc(C(=O)Nc2cc(Cl)c(-c3cccc(F)c3)cc2C(=O)O)cc1 [compound 9, SID162211078]",–
> 10,> 10,6.5 ± 0.61,"CC(C)(C)c1ccc(C(=O)Nc2cc(Cl)c(-c3cccc(Cl)c3)cc2C(=O)O)cc1 [compound 11, SID162211084]",–
> 10,> 10,2.9 ± 0.32,"CC(C)(C)c1ccc(C(=O)Nc2cc(Cl)c(-c3ccc(Cl)c(Cl)c3)cc2C(=O)O)cc1 [compound 13, SID162211080]",–
> 10,3.1 ± 0.17,> 10,"CC(C)(C)c1ccc(C(=O)Nc2cc(Cl)c(-c3ccc(O)cc3)cc2C(=O)O)cc1 [compound 16, SID162211079]",–
> 10,1.2 ± 0.1,> 10,"CC(C)(C)c1ccc(C(=O)Nc2cc(Cl)c(-c3ccccc3O)cc2C(=O)O)cc1 [compound 17, SID162211085]",–

# The next lines start with the compound.
Structure (SMILES),IC50 (HsGlck [5]) [µM],IC50 (TbHK1 [7]) [µM],IC50 (NfGlck [6]) [µM],other results
Nc1ncnc2c1ncn2[C@@H]1O[C@H](COP(=O)(O)OP(=O)(O)O)[C@@H](O)[C@H]1O [ADP],–,–,–,Ki (NfGlck [1]): 116 ± 7 µM
Nc1ncnc2c1ncn2[C@@H]1O[C@H](COP(=O)(O)OP(=O)(O)OP(=O)(O)O)[C@@H](O)[C@H]1O [ATP],–,–,–,Km (NfGlck [2]; co-substrate glucose): 142 ± 9.9 µM
CC(C)(C)c1ccc(C(=O)Nc2cc(Cl)c(-c3ccc(C(F)(F)F)cc3)cc2C(=O)O)cc1 [SID162211070],–,–,–,IC50 (HsGlck [3]): > 10 µM; IC50 (TbHK1 [4]): > 10 µM
CC(C)(C)c1ccc(C(=O)Nc2cc(Cl)c(-c3ccc(C(=O)O)cc3)cc2C(=O)O)cc1 [SID162211072],–,–,–,IC50 (HsGlck [3]): > 10 µM; IC50 (TbHK1 [4]): 3.5 µM
CC(C)(C)c1ccc(C(=O)Nc2cc(Cl)c(-c3ccc(OC(F)(F)F)cc3)cc2C(=O)O)cc1 [SID162211074],–,–,–,IC50 (HsGlck [3]): > 10 µM; IC50 (TbHK1 [4]): > 10 µM
CC(C)(C)c1ccc(C(=O)Nc2cc(Cl)c(-c3cccc([N+](=O)[O-])c3)cc2C(=O)O)cc1 [SID162211082],–,–,–,IC50 (HsGlck [3]): > 10 µM; IC50 (TbHK1 [4]): > 10 µM
"NC(N)=Nc1ccc(-c2ccc(-c3ccc(N=C(N)N)cc3Cl)o2)c(Cl)c1 [compound 1, 2-[3-chloro-4-[5-[2-chloro-4-(diaminomethylideneamino)phenyl]furan-2-yl]phenyl]guanidine]",> 10,2.9 ± 1.13,–,IC50 (PfHK): 0.78 ± 0.17 µM; IC50 (NfGlck [6]; [8]): 2.02 ± 0.31 µM
"NC(N)=Nc1ccc(-c2ccc(-c3ccc(N=C(N)N)c(Cl)c3)o2)cc1Cl [compound 2, 2-[2-chloro-4-[5-[3-chloro-4-(diaminomethylideneamino)phenyl]furan-2-yl]phenyl]guanidine]",2.58 ± 0.53,1.3 ± 0.43,–,IC50 (PfHK): 0.16 ± 0.06 µM; IC50 (NfGlck [6]; [8]): 0.7 ± 0.09 µM
"O=c1c2ccccc2[se]n1-c1ccccc1 [compound 3, 2-phenyl-1,2-benzisoselenazol-3(2H)-one]",–,–,0.88 ± 0.06,–
"O=c1c2ccccc2sn1-c1ccccc1 [compound 4, Ebsulfur]",–,–,> 10,–
"CC(C)(C)c1ccc(C(=O)Nc2cc(Cl)c(C3CC3)cc2C(=O)O)cc1 [compound 6, SID162211071]",> 10,6.7 ± 0.38,> 10,–
"CC(C)(C)c1ccc(C(=O)Nc2cc(Cl)c(-c3ccccc3)cc2C(=O)O)cc1 [compound 8, SID144241590]",> 10,0.28,> 10,IC50 (PfHK): > 10 µM
"CC(C)(C)c1ccc(C(=O)Nc2cc(Cl)c(-c3ccccc3F)cc2C(=O)O)cc1 [compound 10, SID162211083]",> 10,6.7 ± 1,> 10,–
"CC(C)(C)c1ccc(C(=O)Nc2cc(Cl)c(-c3ccc(F)c(Cl)c3)cc2C(=O)O)cc1 [compound 12, SID162211073]",> 10,> 10,5.9 ± 0.26,–
"COc1cccc(-c2cc(C(=O)O)c(NC(=O)c3ccc(C(C)(C)C)cc3)cc2Cl)c1 [compound 14, SID162211075]",–,3.9 ± 0.65,> 10,–
"COc1ccccc1-c1cc(C(=O)O)c(NC(=O)c2ccc(C(C)(C)C)cc2)cc1Cl [compound 15, SID162211076]",> 10,9.3 ± 0.55,> 10,–
"Cc1ccccc1-c1cc(C(=O)O)c(NC(=O)c2ccc(C(C)(C)C)cc2)cc1Cl [compound 18, SID162211086]",> 10,> 10,> 10,–
N[C@H]1C(O)O[C@H](CO)[C@@H](O)[C@@H]1O (stereo partly shown) [glucosamine],–,–,–,Ki (NfGlck [1]; competitive inhibitor of glucose): 186 ± 20.6 µM
OC[C@H]1OC(O)[C@H](O)[C@@H](O)[C@@H]1O (stereo partly shown) [glucose],–,–,–,Km (NfGlck [2]; co-substrate ATP): 42.5 ± 7.3 µM
